Laboratory results from patent US8952024B2, “Herbicidal pyrimidone derivatives” (E I du Pont de Nemours and Company, priority 2009, dated 2015).
Where two headings read alike, the source gives them in different places.

Columns and labels:
Assay type in all cases: in vivo
[1] = tested on: chickweed (Stellaria media); test: Test B postemergence plant response; details: Stellaria media, post-emergence, 360 h, Postemergence
In short: (§1)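 Plants at the 1- to 4-leaf stage (2 to 18 cm tall), grown in pots of peat moss/vermiculite medium with wetting agent and starter nutrients, received postemergence applications of test chemicals. After 13 to 15 days in a greenhouse, injury was rated visually against untreated controls on a 0 (no effect) to 100 (complete control) scale.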

[2] = tested on: windgrass (Apera spica-venti); test: Test B postemergence plant response; details: Apera spica-venti, post-emergence, 360 h, Postemergence
In short: as §1

[3] = tested on: canarygrass (Phalaris minor); test: Test B postemergence plant response; details: Phalaris minor, post-emergence, 360 h, Postemergence
In short: as §1

[4] = tested on: winter barley (Hordeum vulgare); test: Test B postemergence plant response; details: Hordeum vulgare, post-emergence, Postemergence, read-out: Plant response rating, Barley
In short: as §1

[5] = tested on: sunflower (common oilseed sunflower, Helianthus annuus); test: Test B pre-/postemergence plant response; details: Preemergence
In short: (§2)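 Visual ratings on a 0–100 scale (100 = complete control) were made versus untreated controls 13–15 days after treatment in a greenhouse. Compounds in surfactant-containing non-phytotoxic solvent were applied preemergence to seeds in loam–sand blend or postemergence to 1- to 4-leaf plants (2–18 cm).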

[6] = tested on: Italian ryegrass (Lolium multiflorum); test: Test B pre-/postemergence plant response; details: for pest or weed control at 31 g/ha: 31 g ai/ha; for pest or weed control at 62 g/ha: 62 g ai/ha
In short: as §2

[7] = tested on: wheat (Triticum aestivum); test: Test B pre-/postemergence plant response; details: for plant injury at 31 g/ha: 31 g ai/ha; for plant injury at 62 g/ha: 62 g ai/ha
In short: as §2

[8] = tested on: lambsquarters (Chenopodium album); test: Test B pre-/postemergence plant response; details: for pest or weed control at 16 g/ha: 16 g ai/ha; for pest or weed control at 16 g/ha / pest or weed control at 31 g/ha / pest or weed control at 62 g/ha: read-out: Plant response rating, Lambsquarters; for pest or weed control at 31 g/ha: 31 g ai/ha; for pest or weed control at 62 g/ha: 62 g ai/ha
In short: as §2

[9] = tested on: bermudagrass (Cynodon dactylon); test: Test B pre-/postemergence plant response; details: for pest or weed control at 16 g/ha: 16 g ai/ha; for pest or weed control at 31 g/ha: 31 g ai/ha; for pest or weed control at 62 g/ha: 62 g ai/ha
In short: as §2

[10] = tested on: nightshade (eastern black nightshade, Solanum ptycanthum); test: Test B pre-/postemergence plant response; details: Preemergence
In short: as §2

[11] = tested on: pigweed (Amaranthus retroflexus); test: Test B pre-/postemergence plant response; details: for pest or weed control at 16 g/ha: 16 g ai/ha; for pest or weed control at 16 g/ha / pest or weed control at 31 g/ha / pest or weed control at 62 g/ha: read-out: Plant response rating, Pigweed; for pest or weed control at 31 g/ha: 31 g ai/ha; for pest or weed control at 62 g/ha: 62 g ai/ha
In short: as §2

[12] = tested on: ragweed (common ragweed, Ambrosia elatior); test: Test B pre-/postemergence plant response; details: for pest or weed control at 31 g/ha: 31 g ai/ha; for pest or weed control at 62 g/ha: 62 g ai/ha
In short: as §2

[13] = 125 g ai/ha, visual rating after 13 to 15 days, scale 0 (no effect) to 100 (complete control)
[14] = 31 g ai/ha, scale 0 to 100 (0 no effect, 100 complete control)
[15] = 62 g ai/ha, scale 0 to 100, 0 no effect, 100 complete control
[16] = Lolium multiflorum, pre-emergence, Preemergence, scale 0 to 100 (0 no effect, 100 complete control), read-out: Plant response rating, Ryegrass, Italian
[17] = Preemergence, 125 g ai/ha, 0 to 100 scale
[18] = Triticum aestivum, pre-emergence, Preemergence, scale 0 to 100 (0 no effect, 100 complete control), read-out: Plant response rating, Wheat
[19] = Chenopodium album, pre-emergence, Preemergence, scale 0 to 100 (0 no effect, 100 complete control)
[20] = Cynodon dactylon, pre-emergence, Preemergence, scale 0 to 100 (0 no effect, 100 complete control), read-out: Plant response rating, Bermudagrass
[21] = Amaranthus retroflexus, pre-emergence, Preemergence, scale 0 to 100 (0 no effect, 100 complete control)
[22] = Ambrosia artemisiifolia, pre-emergence, 360 h, Preemergence, scale 0 to 100 (0 no effect, 100 complete control), read-out: Plant response rating, Ragweed

## O=C1CCCC(O)=C1C(=O)c1cnc(-c2ccccc2)n(-c2ccccc2)c1=O [Compound 2, 5-[(2-hydroxy-6-oxo-1-cyclohexen-1-yl)carbonyl]-2,3-diphenyl-4(3H)-pyrimidinone]
[1]; 16 g ai/ha, 0 to 100 scale, read-out: Plant response rating, Chickweed
  pest or weed control at 16 g/ha: 70%
[1]; 31 g ai/ha, scale 0 to 100 (0 no effect, 100 complete control), read-out: Plant response rating, Chickweed
  pest or weed control at 31 g/ha: 75%
[1]; 62 g ai/ha, scale 0 (no effect) to 100 (complete control), 13 to 15 days, read-out: Plant response rating, Chickweed
  pest or weed control at 62 g/ha: 90%
[1]; [13]
  pest or weed control at 125 g/ha: 95%
[2]; 16 g ai/ha, 0 to 100 scale, read-out: Plant response rating, Windgrass
  pest or weed control at 16 g/ha: 10%
[2]; 31 g ai/ha, scale 0 to 100 (0 no effect, 100 complete control), read-out: Plant response rating, Windgrass
  pest or weed control at 31 g/ha: 10%
[2]; 62 g ai/ha, scale 0 (no effect) to 100 (complete control), 13 to 15 days, read-out: Plant response rating, Windgrass
  pest or weed control at 62 g/ha: 15%
[2]; [13]
  pest or weed control at 125 g/ha: 50%
[3]; 16 g ai/ha, 0 to 100 scale, read-out: Plant response rating, Canarygrass
  pest or weed control at 16 g/ha: 20%
[3]; 31 g ai/ha, scale 0 to 100 (0 no effect, 100 complete control), read-out: Plant response rating, Canarygrass
  pest or weed control at 31 g/ha: 40%
[3]; 62 g ai/ha, scale 0 (no effect) to 100 (complete control), 13 to 15 days, read-out: Plant response rating, Canarygrass
  pest or weed control at 62 g/ha: 50%
[3]; [13]
  pest or weed control at 125 g/ha: 80%
[4]; 16 g ai/ha, 0 to 100 scale
  plant injury at 16 g/ha: 0%
[4]; [14]
  plant injury at 31 g/ha: 10%
[4]; 62 g ai/ha, scale 0 (no effect) to 100 (complete control), 13 to 15 days
  plant injury at 62 g/ha: 20%
[4]; 125 g ai/ha, scale 0 to 100 (0 no effect, 100 complete control), 13 to 15 days
  plant injury at 125 g/ha: 30%
[5]; [14]
  Plant response rating, Sunflower: 50
[5]; [15]
  Plant response rating, Sunflower: 70
[5]; 125 g ai/ha, 0 to 100 scale
  Sunflower plant response rating: 90
[6]; Lolium multiflorum, post-emergence, 16 g ai/ha, Postemergence, 0 to 100 scale, read-out: Plant response rating, Ryegrass, Italian
  pest or weed control at 16 g/ha: 0%
[6]; Lolium multiflorum, post-emergence, Postemergence, scale 0 to 100 (0 no effect, 100 complete control), read-out: Plant response rating, Ryegrass, Italian
  pest or weed control at 31 g/ha: 0%
[6]; Lolium multiflorum, post-emergence, Postemergence, scale 0 (no effect) to 100 (complete control), 13 to 15 days, read-out: Plant response rating, Ryegrass, Italian
  pest or weed control at 62 g/ha: 40%
[6]; Lolium multiflorum, post-emergence, Postemergence, 125 g ai/ha, visual rating after 13 to 15 days, scale 0 (no effect) to 100 (complete control)
  pest or weed control at 125 g/ha: 40%
[6]; [16]
  pest or weed control at 31 g/ha: 0%
  pest or weed control at 62 g/ha: 0%
[6]; [17]
  Ryegrass, Italian plant response rating: 5
[7]; [17]
  Wheat plant response rating: 0
[7]; Triticum aestivum, post-emergence, 16 g ai/ha, Postemergence, 0 to 100 scale, read-out: Plant response rating, Wheat
  plant injury at 16 g/ha: 0%
[7]; Triticum aestivum, post-emergence, Postemergence, scale 0 to 100 (0 no effect, 100 complete control), read-out: Plant response rating, Wheat
  plant injury at 31 g/ha: 5%
[7]; Triticum aestivum, post-emergence, Postemergence, scale 0 (no effect) to 100 (complete control), 13 to 15 days, read-out: Plant response rating, Wheat
  plant injury at 62 g/ha: 10%
[7]; Triticum aestivum, post-emergence, Postemergence, 125 g ai/ha, visual rating after 13 to 15 days, scale 0 (no effect) to 100 (complete control)
  plant injury at 125 g/ha: 20%
[7]; [18]
  plant injury at 31 g/ha: 0%
  plant injury at 62 g/ha: 0%
[8]; Chenopodium album, post-emergence, Postemergence, 0 to 100 scale
  pest or weed control at 16 g/ha: 80%
[8]; Chenopodium album, post-emergence, Postemergence, scale 0 to 100 (0 no effect, 100 complete control)
  pest or weed control at 31 g/ha: 90%
[8]; Chenopodium album, post-emergence, Postemergence, scale 0 (no effect) to 100 (complete control), 13 to 15 days
  pest or weed control at 62 g/ha: 90%
[8]; Chenopodium album, post-emergence, Postemergence, 125 g ai/ha, visual rating after 13 to 15 days, scale 0 (no effect) to 100 (complete control)
  pest or weed control at 125 g/ha: 95%
[8]; [19]
  pest or weed control at 16 g/ha: 100%
  pest or weed control at 31 g/ha: 100%
[8]; Chenopodium album, pre-emergence, Preemergence, scale 0 to 100, 0 no effect, 100 complete control
  pest or weed control at 62 g/ha: 100%
[8]; [17]
  Lambsquarters plant response rating: 100
[9]; Cynodon dactylon, post-emergence, Postemergence, 0 to 100 scale, read-out: Plant response rating, Bermudagrass
  pest or weed control at 16 g/ha: 40%
[9]; Cynodon dactylon, post-emergence, Postemergence, scale 0 to 100 (0 no effect, 100 complete control), read-out: Plant response rating, Bermudagrass
  pest or weed control at 31 g/ha: 80%
[9]; Cynodon dactylon, post-emergence, Postemergence, scale 0 (no effect) to 100 (complete control), 13 to 15 days, read-out: Plant response rating, Bermudagrass
  pest or weed control at 62 g/ha: 85%
[9]; Cynodon dactylon, post-emergence, Postemergence, 125 g ai/ha, scale 0 to 100 (0 no effect, 100 complete control), 13 to 15 days, read-out: Plant response rating, Bermudagrass
  pest or weed control at 125 g/ha: 90%
[9]; [20]
  pest or weed control at 16 g/ha: 25%
  pest or weed control at 31 g/ha: 98%
[9]; Cynodon dactylon, pre-emergence, Preemergence, scale 0 to 100, 0 no effect, 100 complete control, read-out: Plant response rating, Bermudagrass
  pest or weed control at 62 g/ha: 100%
[9]; [17]
  Bermudagrass plant response rating: 100
[10]; 16 g ai/ha, scale 0 to 100, 0 no effect, 100 complete control
  Plant response rating, Nightshade: 55
[10]; [14]
  Plant response rating, Nightshade: 98
[10]; [15]
  Plant response rating, Nightshade: 100
[10]; 125 g ai/ha, 0 to 100 scale
  Nightshade plant response rating: 100
[11]; Amaranthus retroflexus, post-emergence, Postemergence, 0 to 100 scale
  pest or weed control at 16 g/ha: 70%
[11]; Amaranthus retroflexus, post-emergence, Postemergence, scale 0 to 100 (0 no effect, 100 complete control)
  pest or weed control at 31 g/ha: 85%
[11]; Amaranthus retroflexus, post-emergence, Postemergence, scale 0 (no effect) to 100 (complete control), 13 to 15 days
  pest or weed control at 62 g/ha: 90%
[11]; Amaranthus retroflexus, post-emergence, Postemergence, 125 g ai/ha, visual rating after 13 to 15 days, scale 0 (no effect) to 100 (complete control)
  pest or weed control at 125 g/ha: 95%
[11]; [21]
  pest or weed control at 16 g/ha: 98%
  pest or weed control at 31 g/ha: 100%
  pest or weed control at 62 g/ha: 100%
[11]; [17]
  Pigweed plant response rating: 100
[12]; Ambrosia artemisiifolia, post-emergence, 360 h, 16 g ai/ha, Postemergence, 0 to 100 scale, read-out: Plant response rating, Ragweed
  pest or weed control at 16 g/ha: 65%
[12]; Ambrosia artemisiifolia, post-emergence, 360 h, Postemergence, scale 0 to 100 (0 no effect, 100 complete control), read-out: Plant response rating, Ragweed
  pest or weed control at 31 g/ha: 70%
[12]; Ambrosia artemisiifolia, post-emergence, 360 h, Postemergence, scale 0 (no effect) to 100 (complete control), 13 to 15 days, read-out: Plant response rating, Ragweed
  pest or weed control at 62 g/ha: 80%
[12]; Ambrosia artemisiifolia, post-emergence, 360 h, Postemergence, 125 g ai/ha, visual rating after 13 to 15 days, scale 0 (no effect) to 100 (complete control)
  pest or weed control at 125 g/ha: 90%
[12]; [22]
  pest or weed control at 31 g/ha: 60%
  pest or weed control at 62 g/ha: 85%
[12]; [17]
  Ragweed plant response rating: 98
